# Source: patent US8969395B2, “Triterpenoid derivatives useful as antiproliferative agents” (Universidade de Coimbra, priority 2009, dated 2015)
# What was measured:
# Format in all cases: cell-based
# [1] = tested on: HepG2 (human hepatocellular carcinoma); assay: Cytotoxic activity, MTT assay, HepG2; conditions: 72 h, mean ±SD
# Description: (§1) The cytotoxic of compounds of formulas (I) and (II) 14-50 was assessed towards human cancer (HepG2, HeLa and Jurkat) cell lines (Table 3 below). Compounds presented on Table 4 were also tested against a non-tumoral liver cell line (Chang liver). The cell viability of HeLa, HepG2 and Chang liver cells was determined by the MTT assay. Briefly, exponentially growing cells were plated in 96-well plates at a density of 1×10^3, 8×10^3 and 5×10^3 cells/well respectively and incubated for 24 h before treatment. The grown medium was replaced with one contained the tested compounds dissolved in DMSO (final DMSO concentration <0.1%) at different concentrations, in triplicate wells, and cells were incubated for 72 h. After incubation with the compounds, the medium was removed and MTT solution (0.5 mg/ml, 100 μl) was added to each well and the plates were incubated again for 1 h. DMSO (100 μl) was then added to dissolve the formazan crystals and the plates were immediately read at 550 nm on an ELISA plate reader (Tecan Sunrise MR20-301, TECAN, Austria). For the Jurkat cells, the cell viability was determined by the XTT assay. Briefly, exponentially growing cells were plated in 96-well plates at a density of 5.5×10^3 cells/well, treated with different concentrations of compounds in triplicate and incubated for 72 h. After incubation with the compounds the XTT labeling mixture (100 μl) were added to each of the wells and after a 4 h incubation period the plates were read at 450 nm on an ELISA plate reader. […] Known for its cytotoxic activity, betulinic acid 2 was used as a positive control in this experimentation. […] All the IC50 results represent an average of a minimum of three experiments and were expressed as means±standard deviation (SD).
# Jurkat (human leukemia) = assay: Cytotoxic activity, XTT assay, Jurkat; conditions: 72 h, mean ±SD
# Description: as §1
# [2] = tested on: HeLa (human cervical adenocarcinoma); assay: Cytotoxic activity, MTT assay, HeLa; conditions: 72 h, mean ±SD
# Description: The cytotoxic of compounds of formulas (I) and (II) 14-50 was assessed towards human cancer (HepG2, HeLa and Jurkat) cell lines (Table 3 below). Compounds presented on Table 4 were also tested against a non-tumoral liver cell line (Chang liver). The cell viability of HeLa, HepG2 and Chang liver cells was determined by the MTT assay. Briefly, exponentially growing cells were plated in 96-well plates at a density of 1×10^3, 8×10^3 and 5×10^3 cells/well respectively and incubated for 24 h before treatment. The grown medium was replaced with one contained the tested compounds dissolved in DMSO (final DMSO concentration <0.1%) at different concentrations, in triplicate wells, and cells were incubated for 72 h. After incubation with the compounds, the medium was removed and MTT solution (0.5 mg/ml, 100 μl) was added to each well and the plates were incubated again for 1 h. DMSO (100 μl) was then added to dissolve the formazan crystals and the plates were immediately read at 550 nm on an ELISA plate reader (Tecan Sunrise MR20-301, TECAN, Austria). For the Jurkat cells, the cell viability was determined by the XTT assay. Briefly, exponentially growing cells were plated in 96-well plates at a density of 5.5×10^3 cells/well, treated with different concentrations of compounds in triplicate and incubated for 72 h. After incubation with the compounds the XTT labeling mixture (100 μl) were added to each of the wells and after a 4 h incubation period the plates were read at 450 nm on an ELISA plate reader. […] Known for its cytotoxic activity, betulinic acid 2 was used as a positive control in this experimentation.
# [3] = tested on: Chang liver (human normal liver cells); assay: Cytotoxic activity against non-tumoral cell line, MTT assay; conditions: 72 h, mean ±SD
# Description: as §1
# [4] = tested on: LAPC4 (human prostate adenocarcinoma); assay: Cytotoxic activity, LAPC4; conditions: mean ±SD
# Description: (§2) Compounds presented in Table 6 were also tested in the following cell lines: PC-3 (human prostate adenocarcinoma), LNCaP (human prostate adenocarcinoma), LAPC4 (human prostate adenocarcinoma) and HT-29 (human colon adenocarcinoma).
# [5] = tested on: LNCaP (human prostate adenocarcinoma); assay: Cytotoxic activity, LNCaP; conditions: mean ±SD
# Description: as §2
# [6] = tested on: PC-3 (human prostate adenocarcinoma); assay: Cytotoxic activity, PC-3; conditions: mean ±SD
# Description: as §2
# [7] = tested on: HT-29 (human colon adenocarcinoma); assay: Cytotoxic activity, HT-29; conditions: mean ±SD
# Description: as §2
Compound,IC50 [1] [µM],IC50 (Jurkat (human leukemia)) [µM],IC50 [2] [µM],IC50 [3] [µM],IC50 [4] [µM],IC50 [5] [µM],IC50 [6] [µM],IC50 [7] [µM]
"C=C(C)[C@@H]1CC[C@]2(C(=O)n3ccnc3)CC[C@]3(C)[C@H](CC[C@@H]4[C@@]5(C)CC[C@H](OC(=O)n6ccnc6)C(C)(C)[C@@H]5CC[C@]43C)[C@@H]12 [Compound 30, 28-(1H-imidazole-1-yl)-28-oxo-lup-20(29)-en-3β-yl-1H-imidazole-1-carboxylate]",2.9 ± 0.4,6 ± 1.2,8.2 ± 0.4,150 ± 13.6,4.4 ± 0.2,1.9 ± 0.2,1.1 ± 0.1,–
"C=C(C)[C@@H]1CC[C@]2(C(=O)n3ccnc3C)CC[C@]3(C)[C@H](CC[C@@H]4[C@@]5(C)CC[C@H](OC(=O)n6ccnc6C)C(C)(C)[C@@H]5CC[C@]43C)[C@@H]12 [Compound 31, 28-(2′-methyl-1H-imidazole-1-yl)-28-oxo-lup-20(29)-en-3β-yl-2′-methyl-1H-imidazole-1-carboxylate]",11.6 ± 0.8,20.1 ± 3.2,–,–,–,–,–,7.8 ± 1.6
"C=C(C)[C@@H]1CC[C@]2(C(=O)OC)CC[C@]3(C)[C@H](CC[C@@H]4[C@@]5(C)CC[C@H](OC(=O)n6ccnc6C)C(C)(C)[C@@H]5CC[C@]43C)[C@@H]12 [Compound 34, Methyl 3β-(2′-methyl-1H-imidazole-1-carbonyloxy)-lup-20(29)-en-28-oate]",13.4 ± 1.7,16.4 ± 2.4,13.4 ± 1.7,–,–,–,–,12.9 ± 0.5
"C=C(COC)[C@@H]1CC[C@]2(COC(=O)n3ccnc3)CC[C@]3(C)[C@H](CC[C@@H]4[C@@]5(C)CC[C@H](O)C(C)(C)[C@@H]5CC[C@]43C)[C@@H]12 [Compound 35, 3β-hydroxy-30-methoxylup-20(29)-en-28-yl-1H-imidazole-1-carboxylate]",8.3 ± 0.4,12.2 ± 1.3,9.8 ± 0.6,96.4 ± 7.5,9.5 ± 0.7,7.7 ± 0.9,11.4 ± 1.3,–
"C=C(COC)[C@@H]1CC[C@]2(COC(=O)n3ccnc3)CC[C@]3(C)[C@H](CC[C@@H]4[C@@]5(C)CC[C@H](OC(=O)n6ccnc6)C(C)(C)[C@@H]5CC[C@]43C)[C@@H]12 [Compound 38, 30-methoxylup-20(29)-en-3β,28-di-yl-(1H-imidazole-1-carboxylate)]",19.6 ± 1.6,16.2 ± 1,> 30,170 ± 17.7,7.3 ± 1.1,8.1 ± 1,2 ± 0.3,–
"C[C@@H](C=O)[C@@H]1CC[C@]2(COC(=O)n3ccnc3)CC[C@]3(C)[C@H](CC[C@@H]4[C@@]5(C)CC[C@H](O)C(C)(C)[C@@H]5CC[C@]43C)[C@@H]12 [Compound 41, 3β-hydroxy-(20R)-lupan-29-oxo-28-yl-1H-imidazole-1-carboxylate]",11.5 ± 1.1,13.7 ± 1.4,11.1 ± 1.4,146 ± 4.5,> 30,15.6 ± 2.4,16.7 ± 2.4,–
"C[C@@H](C=O)[C@@H]1CC[C@]2(COC(=O)n3ccnc3)CC[C@]3(C)[C@H](CC[C@@H]4[C@@]5(C)CC[C@H](OC(=O)n6ccnc6)C(C)(C)[C@@H]5CC[C@]43C)[C@@H]12 [Compound 43, (20R)-lupane-29-oxo-3β,28-di-yl-(1H-imidazole-1-carboxylate)]",26.1 ± 1.1,20.2 ± 1.6,19.2 ± 1.5,156 ± 12.5,7.9 ± 1.3,6.9 ± 0.3,6.2 ± 0.7,–
